Reference: publication PMC3391414 (Journal of Agricultural and Food Chemistry, 2011)
“Also recorded” adds a separate entry of the source.

Assays:
UGT1A3 = target: T1, UGT1A3 (Homo sapiens, UniProt P35503); assay: Glucuronidation by recombinant human UGT1A3
T1 sequence (P35503 29-534): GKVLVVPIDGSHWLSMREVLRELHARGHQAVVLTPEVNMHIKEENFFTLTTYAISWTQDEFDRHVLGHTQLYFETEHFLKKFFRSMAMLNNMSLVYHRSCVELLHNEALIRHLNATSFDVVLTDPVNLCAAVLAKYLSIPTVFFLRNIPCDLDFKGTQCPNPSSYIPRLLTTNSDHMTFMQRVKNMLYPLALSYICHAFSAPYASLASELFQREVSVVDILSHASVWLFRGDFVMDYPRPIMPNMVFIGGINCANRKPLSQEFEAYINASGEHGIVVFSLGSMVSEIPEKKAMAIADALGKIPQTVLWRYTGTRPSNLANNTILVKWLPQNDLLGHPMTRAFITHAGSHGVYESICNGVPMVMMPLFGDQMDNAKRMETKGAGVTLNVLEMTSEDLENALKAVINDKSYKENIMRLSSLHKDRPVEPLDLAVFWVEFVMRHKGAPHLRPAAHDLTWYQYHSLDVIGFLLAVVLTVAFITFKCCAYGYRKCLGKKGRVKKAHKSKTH

UGT1A1 = target: T2, UGT1A1 (Homo sapiens, UniProt P22309); assay: Glucuronidation by recombinant human UGT1A1
T2 sequence (P22309 26-533): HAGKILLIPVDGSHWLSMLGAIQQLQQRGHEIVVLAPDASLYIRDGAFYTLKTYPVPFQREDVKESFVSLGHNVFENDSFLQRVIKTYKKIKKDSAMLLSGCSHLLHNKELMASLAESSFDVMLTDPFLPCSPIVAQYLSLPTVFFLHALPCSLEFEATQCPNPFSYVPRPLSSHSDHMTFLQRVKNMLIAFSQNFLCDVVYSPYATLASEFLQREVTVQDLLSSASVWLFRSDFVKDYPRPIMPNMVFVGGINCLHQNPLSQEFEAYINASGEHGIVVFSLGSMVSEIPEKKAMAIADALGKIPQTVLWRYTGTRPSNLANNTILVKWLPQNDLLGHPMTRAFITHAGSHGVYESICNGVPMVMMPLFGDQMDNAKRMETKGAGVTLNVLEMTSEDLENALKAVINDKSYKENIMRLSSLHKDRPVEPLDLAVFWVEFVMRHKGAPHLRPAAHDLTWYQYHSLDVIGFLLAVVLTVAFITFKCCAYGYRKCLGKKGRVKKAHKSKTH

[1] = test system: UGT 1A1, 1A3, 1A6, 1A7, 1A8, 1A9, 1A10 and 2B7; assay: Glucuronidation by the panel of 8 recombinant human UGT isoforms; conditions: substrate 10 μM
UGT1A9 = target: T3, UGT1A9 (Homo sapiens, UniProt O60656); assay: Glucuronidation by recombinant human UGT1A9
T3 sequence (O60656 26-530): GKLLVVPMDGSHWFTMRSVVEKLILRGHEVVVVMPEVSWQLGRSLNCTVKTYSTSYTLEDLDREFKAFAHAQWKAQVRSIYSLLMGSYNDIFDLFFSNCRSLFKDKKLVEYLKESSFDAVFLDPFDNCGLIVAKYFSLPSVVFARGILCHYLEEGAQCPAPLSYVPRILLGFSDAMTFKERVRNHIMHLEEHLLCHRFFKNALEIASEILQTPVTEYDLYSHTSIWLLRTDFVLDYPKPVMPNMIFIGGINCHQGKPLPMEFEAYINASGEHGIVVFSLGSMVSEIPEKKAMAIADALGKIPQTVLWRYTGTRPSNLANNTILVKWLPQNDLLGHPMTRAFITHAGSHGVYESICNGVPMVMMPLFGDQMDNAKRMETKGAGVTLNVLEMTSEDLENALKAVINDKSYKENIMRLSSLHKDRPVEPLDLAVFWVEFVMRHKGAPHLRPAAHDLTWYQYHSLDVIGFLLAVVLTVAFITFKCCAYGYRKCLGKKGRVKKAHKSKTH

UGT1A8 = target: T4, UGT1A8 (Homo sapiens, UniProt Q9HAW9); assay: Glucuronidation by recombinant human UGT1A8; conditions: UGT1A8, substrate 35 μM
T4 sequence (Q9HAW9 26-530): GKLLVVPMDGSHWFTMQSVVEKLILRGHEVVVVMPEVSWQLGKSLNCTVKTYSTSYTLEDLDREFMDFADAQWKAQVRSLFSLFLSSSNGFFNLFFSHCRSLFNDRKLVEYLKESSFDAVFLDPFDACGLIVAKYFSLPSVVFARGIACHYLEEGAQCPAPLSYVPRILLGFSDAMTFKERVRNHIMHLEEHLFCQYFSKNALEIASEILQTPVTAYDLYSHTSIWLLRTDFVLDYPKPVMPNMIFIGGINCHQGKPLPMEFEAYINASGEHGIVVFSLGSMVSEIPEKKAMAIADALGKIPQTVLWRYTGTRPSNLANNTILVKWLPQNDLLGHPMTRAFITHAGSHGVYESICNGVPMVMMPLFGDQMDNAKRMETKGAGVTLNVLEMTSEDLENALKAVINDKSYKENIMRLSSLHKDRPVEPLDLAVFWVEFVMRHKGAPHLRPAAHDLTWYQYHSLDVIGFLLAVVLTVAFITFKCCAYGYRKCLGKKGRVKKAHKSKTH

UGT1A6 = target: T5, UGT1A6 (Homo sapiens, UniProt P19224); assay: Glucuronidation by recombinant human UGT1A6; conditions: UGT1A6, substrate 10 μM
T5 sequence (P19224 27-532): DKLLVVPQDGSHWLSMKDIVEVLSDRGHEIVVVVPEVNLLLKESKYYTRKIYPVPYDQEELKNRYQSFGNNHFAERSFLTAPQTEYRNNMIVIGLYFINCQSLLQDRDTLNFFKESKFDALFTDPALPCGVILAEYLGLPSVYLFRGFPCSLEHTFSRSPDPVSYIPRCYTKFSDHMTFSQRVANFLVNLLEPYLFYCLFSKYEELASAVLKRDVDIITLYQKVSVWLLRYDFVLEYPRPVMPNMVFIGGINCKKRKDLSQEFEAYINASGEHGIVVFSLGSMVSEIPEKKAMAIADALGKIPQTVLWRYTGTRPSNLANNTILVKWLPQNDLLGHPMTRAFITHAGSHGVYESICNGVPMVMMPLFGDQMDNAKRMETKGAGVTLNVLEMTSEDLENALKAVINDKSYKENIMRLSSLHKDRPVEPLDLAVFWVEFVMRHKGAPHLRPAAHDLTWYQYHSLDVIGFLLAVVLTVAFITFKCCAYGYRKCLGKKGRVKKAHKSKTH

Row | SMILES | Degree of regiospecificity (major glucuronide in bracket) (UGT1A3; UGT1A3, substrate 2.5 μM) | Degree of regiospecificity (major glucuronide in bracket) (UGT1A3; UGT1A3, substrate 10 μM) | Degree of regiospecificity (major glucuronide in bracket) (UGT1A1; UGT1A1, substrate 2.5 μM) | Degree of regiospecificity (major glucuronide in bracket) (UGT1A1; UGT1A1, substrate 10 μM) | Glucuronidation and regiospecificity across the 8 UGT isoforms [1] | Degree of regiospecificity (major glucuronide in bracket) (UGT1A9; UGT1A9, substrate 2.5 μM) | Degree of regiospecificity (major glucuronide in bracket) (UGT1A9; UGT1A9, substrate 10 μM) | further results
1 | O=c1cc(-c2ccc(O)cc2)oc2cccc(O)c12 [5,4'DHF, 5,4’-dihydroxyflavone] | Dominant (4’-O) | Moderate (4’-O) | Dominant (4’-O) | Dominant (4’-O) | 4’-O was the preferred position of glucuronidation in all cases | Dominant (4’-O) | Dominant (4’-O) | Degree of regiospecificity (major glucuronide in bracket) (UGT1A3; UGT1A3, substrate 10 μM, listed as 5,4’DHF): moderate regiospecificity for 4’-O position; Degree of regiospecificity (major glucuronide in bracket) (UGT1A1; UGT1A1, substrate 2.5 μM, listed as 5,4’DHF): dominant regiospecificity; Degree of regiospecificity (major glucuronide in bracket) (UGT1A1; UGT1A1, substrate 10 μM, listed as 5,4’DHF): dominant regiospecificity; Degree of regiospecificity (major glucuronide in bracket) (UGT1A9; UGT1A9, substrate 10 μM, listed as 5,4’DHF): dominant regiospecificity
2 | O=c1c(O)c(-c2ccc(O)cc2)oc2ccccc12 [4'HFnol, 3,4’-dihydroxyflavone] | Dominant (3-O) | No (3-O, 4’-O) | No (3-O, 4’-O) | No (3-O, 4’-O) | most isoforms showed dominant regiospecificity by glucuronidating almost only the 3-O position | Dominant (3-O) | Dominant (3-O) | Degree of regiospecificity (major glucuronide in bracket) (UGT1A3; UGT1A3, substrate 10 μM, listed as 4’HFnol): no regiospecificity; Degree of regiospecificity (major glucuronide in bracket) (UGT1A1; UGT1A1, substrate 2.5 μM, listed as 4’HFnol): did not show any regiospecific preference; Degree of regiospecificity (major glucuronide in bracket) (UGT1A1; UGT1A1, substrate 10 μM, listed as 4’HFnol): no regiospecificity; also recorded: did not show any regiospecific preference
3 | O=c1c(O)c(-c2ccccc2)oc2cc(O)cc(O)c12 [5,7DHFnol, 3,5,7-trihydroxyflavone] | Dominant (7-O) | dominantly regiospecific for 7-O; also recorded: Dominant (7-O) | Weak (7-O) | weakly preferred the glucuronidation of 7-O over 3-O position; also recorded: Weak (7-O) | – | Weak (3-O) | did not show any regiospecific preference for any position; also recorded: No (3-O, 7-O) | Degree of regiospecificity (major glucuronide in bracket) (UGT1A9; UGT1A9, substrate 10 μM, listed as 5,7THFnol): 3-O and 7-O were glucuronidated at comparable rates
4 | O=c1c(O)c(-c2ccccc2)oc2ccccc12 [Fnol, 3-hydroxyflavone] | – | – | – | – | could be metabolized by any of the 8 UGT isoforms tested | – | – | –
5 | O=c1cc(-c2ccc(O)cc2)oc2cc(O)ccc12 [7,4'DHF, 7,4’-dihydroxyflavone] | Dominant (7-O) | Dominant (7-O) | Weak (7-O) | Moderate (7-O) | except UGT1A6, all metabolizing isoforms glucuronidated both hydroxyl groups at C-7 and C-4’ positions | Moderate (7-O) | Moderate (7-O) | Degree of regiospecificity (major glucuronide in bracket) (UGT1A3; UGT1A3, substrate 10 μM, listed as 7,4’DHF): dominant regiospecificity for glucuronidation of 7-O position; Degree of regiospecificity (major glucuronide in bracket) (UGT1A1; UGT1A1, substrate 2.5 μM, listed as 7,4’DHF): weak; Degree of regiospecificity (major glucuronide in bracket) (UGT1A1; UGT1A1, substrate 10 μM, listed as 7,4’DHF): moderate regiospecificity for glucuronidation of 7-O position; Degree of regiospecificity (major glucuronide in bracket) (UGT1A9; UGT1A9, substrate 10 μM, listed as 7,4’DHF): moderate regiospecificity for glucuronidation of 7-O position
6 | O=c1c(O)c(-c2ccccc2)oc2cc(O)ccc12 [7HFnol, 3,7-dihydroxyflavone] | Moderate (7-O) | dominantly regiospecific by glucuronidating hydroxyl group only at C-7 position; also recorded: Dominant (7-O) | weak regiospecificity for 7-O position; also recorded: weakly preferred the glucuronidation of 7-O position | no preference; also recorded: did not show any regiospecific preference; also recorded: no regiospecificity; also recorded: No (3-O,7-O) | – | moderate regiospecificity for 3-O position | moderate regiospecificity for 3-O position | Degree of regiospecificity (3-O vs 7-O) (UGT1A8): moderate regiospecificity for 3-O position; Degree of regiospecificity (3-O vs 7-O) (UGT1A1; UGT1A1, substrate 35 μM): no regiospecificity; Hydroxyl positions glucuronidated (UGT1A6): no position was glucuronidated; Degree of regiospecificity (3-O vs 7-O) (UGT1A9; UGT1A9, substrate 35 μM): no regiospecificity
